{"source": "paper PMC6153520", "about": "“Proteasome inhibition and mechanism of resistance to a synthetic, library-based hexapeptide” (Investigational New Drugs, 2018)", "tested_on": "proteasome β1 subunit", "assay": "Western blot, proteasome subunit expression", "assay_type": "cell-based, human", "conditions": "0.1–10 μM, 24 h; THP1/WT, THP1/BTZ100, THP1/BTZ (−100)", "experimental": "Western blot analysis to determine protein levels of (i) β1, β2 and β5 proteasome subunits and (ii) the accumulation of ubiquitinated proteins after treatment with 4A6 was performed essentially as described previously. Cells were harvested in the mid-log phase of growth and washed 3 times with ice-cold buffered saline pH 7.4. Total cell lysates of 5 × 10^6 cells were prepared by resuspension in 500 μl lysis buffer containing: 50 mM Tris-HCl (pH 7.6), 5 mM dithiotreitol, 20 μl PIC (Protease Inhibitor Cocktail; 1 tablet/ml H2O), 20% glycerol and 0.5% NP-40. The suspension was sonicated (MSE sonicator, amplitude 7, for 3 × 5 s with 20 s time intervals at 4 °C) and centrifuged in an Eppendorf micro centrifuge (5 min, 12,000 rpm, 4 °C). Protein content of the supernatant was determined by the Bio-Rad protein assay. 20–30 μg of total cell lysates were fractionated on a 10% polyacrylamide gel containing SDS and transferred onto a PVDF membrane. The membranes were pre-incubated overnight at 4 °C in blocking buffer (5% Bio-Rad Blocker in TBS-T; 10 mM Tris-HCl, pH 8.0, 0.15 M NaCl, 0.1% Tween-20) to prevent non-specific antibody binding. After blocking, the membranes were incubated for 1 h at room temperature with primary antibodies for proteasome subunit β1 (1:1000, PW8140), β2 (1:1000, PW8145) and β5 (1:1000, PW8895) or ubiquitin (1:1000, Santa-Cruz, SC-8017). An antibody to α-tubulin was used (1:1000, Santa Cruz, sc-8035) to check and normalize for any loading differences. After 3 washing steps with TBS-T, the membranes were incubated for 1 h with HRP-labelled donkey-anti-rabbit (1:6000, Amersham, UK) or goat-anti-mouse (1:6000, Dako, Glostrup, Denmark) as secondary antibody. Detection of antibody binding was followed by chemoluminescence using Supersignal (Pierce Biotechnology, Rockford, USA) according to the manufacturers’ instructions. […] The signal intensity was determined densitometrically using Quantity One software (Bio-Rad) and was expressed relative to the intensity of the α-tubulin signal.", "note": "Where a SMILES comes first, the peptide text is derived from it. [ ]: non-standard residue; d: D form. The star is where a group is joined. His(τ-Bzl) = N[C@@H](Cc1cn(Cc2ccccc2)cn1)C(=O)O; Nle = CCCC[C@H](N)C(=O)O; NHBn = c1ccc(CN*)cc1; Bn = c1ccc(C*)cc1; OtBu = CC(C)(C)O*; tBu = CC(C)(C)*", "data": [{"smiles": "CCCC[C@H](NC(=O)[C@@H](NC(=O)[C@H](Cc1cn(Cc2ccccc2)cn1)NC(=O)[C@@H](NC(C)=O)[C@@H](C)OC(C)(C)C)[C@@H](C)OCc1ccccc1)C(=O)N[C@@H](CCC(=O)OC(C)(C)C)C(=O)NCC(=O)NCc1ccccc1", "note": "[4A6, Ac-Thr(tBu)-His(Bzl)-Thr(Bzl)-Nle-Glu(OtBu)-Gly-Bza] (Ac-T(tBu)[His(τ-Bzl)]T(Bn)[Nle]E(OtBu)G-NHBn)", "values": [{"measurement": "effect on expression of the β1 proteasome subunit", "value": "No significant effects"}]}]}
